Results: US9409876B2, “Bradykinin receptor antagonists and pharmaceutical compositions containing them” (DOMPE' FARMACEUTICI S.P.A., priority 2013, dated 2016)

Each compound was assayed against T1, BKB1 receptors (Homo sapiens, UniProt P46663) (assay: Calcium Mobilization Assay (FLIPR), IMR-90 cells, BKB1). Details: IL-1 induced IMR-90 cells, agonist desArg10-kallidin (DAKD).
T1 construct: Human (IMR-90) lung fibroblast cells expressing native BKB1 receptors; endogenous in cells; host or cells: IMR-90 human lung fibroblasts, treated with human IL-1 to up-regulate BKB1
T1 sequence (P46663 1-353): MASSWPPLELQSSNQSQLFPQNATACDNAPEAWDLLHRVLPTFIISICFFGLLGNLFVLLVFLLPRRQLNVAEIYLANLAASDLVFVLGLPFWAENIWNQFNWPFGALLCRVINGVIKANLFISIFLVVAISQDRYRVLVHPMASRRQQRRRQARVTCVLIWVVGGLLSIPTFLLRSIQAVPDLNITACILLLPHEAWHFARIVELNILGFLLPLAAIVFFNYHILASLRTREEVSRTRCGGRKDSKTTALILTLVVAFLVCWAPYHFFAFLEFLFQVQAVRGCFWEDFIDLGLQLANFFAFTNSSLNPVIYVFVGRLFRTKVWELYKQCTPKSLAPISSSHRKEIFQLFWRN
Type: cell-based
Description: Calcium Mobilization Assay (FLIPR)—Human (IMR-90) lung fibroblast cells expressing native BKB1 receptors were harvested by trypsinization and seeded into black wall/clear bottom 96-well plates (Costar 3904; Corning Life Sciences, Acton, Mass.) at approximately 13,000 cells/well. After 1 day incubation, cells were treated with human IL-1 (0.35 ng/ml) in 10% FBS/MEM for 2 h to up-regulate BKB1 receptors. Induced cells were loaded with fluorescent calcium indicator by incubation with 2.3 µM Fluo-4/acetoxymethyl ester (Invitrogen) at 37° C. for 1.5 h in the presence of an anion transport inhibitor (2.5 mM probenecid in 1% FBS/MEM). Extracellular dye was removed by washing with assay buffer (2.5 mM probenecid, 0.1% BSA in 20 mM HEPES/HBSS without bicarbonate or phenol red, pH 7.5) and cell plates were kept in the dark until used. Test compounds were assayed at eight concentrations in triplicate.

First: Cc1ccc(C(C(=O)NCC2CCCO2)N(CC2CCCCC2)C(=O)Cc2ccccc2C)cc1 (stereo not shown) [33 (mix), N-(cyclohexylmethyl)-2-(2-methylphenyl)-N-{1-(4-methylphenyl)-2-oxo-2-[(tetrahydrofuran-2-ylmethyl)amino]ethyl}acetamide]
Second: COc1ccccc1CN(C(=O)Cc1ccccc1)[C@@H](C(=O)NC[C@H]1CCCO1)c1ccc(C)cc1 [Compound 7 (R,R), N-(2-methoxybenzyl)-N-{(1R)-1-(4-methylphenyl)-2-oxo-2-[(2R)-(tetrahydrofuran-2-ylmethyl)amino]ethyl}-2-phenylacetamide]
The IC50 of the first is 8.5-fold higher: 1700 nM for the first, 200 nM for the second.

Compared with `COc1ccccc1CN(C(=O)C1CCCC1)C(C(=O)NCC1CCCO1)c1ccc(C)cc1` (stereo not shown) [15 (mix), N-(2-methoxybenzyl)-N-{1-(4-methylphenyl)-2-oxo-2-[(tetrahydrofuran-2-ylmethyl)amino]ethyl}cyclopentanecarboxamide], `COc1ccccc1CN(C(=O)Cc1ccc(N(C)C)cc1)C(C(=O)NCC1CCCO1)c1ccc(C)cc1` (stereo not shown) [29 (mix), 2-[(4-dimethylamino)phenyl]-N-(2-methoxybenzyl)-N-{1-(4-methylphenyl)-2-oxo-2-[(tetrahydrofuran-2-ylmethyl)amino]ethyl}acetamide] is 7-fold higher in IC50: 300 nM for the first, 2100 nM for the second. The first is the more potent here.

Going from `Cc1ccc(C(C(=O)NCC2CCCO2)N(CC2CCCCC2)C(=O)CC2CCCC2)cc1` (stereo not shown) [48 (mix), N-(cyclohexylmethyl)-2-cyclopentyl-N-{1-(4-methylphenyl)-2-oxo-2-[(tetrahydrofuran-2-ylmethyl)amino]ethyl}acetamide] to `COc1ccccc1CN(C(=O)Cc1ccccc1C)C(C(=O)NCC1CCCO1)c1ccc(C)cc1` (stereo not shown) [9 (mix)], the IC50 falls from 15000 nM to 300 nM (50-fold).

Going from `CCC(CC)CN(C(=O)Cc1ccccc1C)C(C(=O)NCC1CCCO1)c1ccc(C)cc1` (stereo not shown) [41 (mix), N-(2-ethylbutyl)-2-(2-methylphenyl)-N-{1-(4-methylphenyl)-2-oxo-2-[(tetrahydrofuran-2-ylmethyl)amino]ethyl}acetamide] to `COc1ccccc1CN(C(=O)C1CC1)C(C(=O)NCC1CCCO1)c1ccc(C)cc1` (stereo not shown) [27 (mix), N-(2-methoxybenzyl)-N-{1-(4-methylphenyl)-2-oxo-2-[(tetrahydrofuran-2-ylmethyl)amino]ethyl}cyclopropanecarboxamide], the IC50 rises from 4300 nM to 15000 nM (3.5-fold).

`COc1ccccc1CN(C(=O)c1ccccc1[N+](=O)[O-])C(C(=O)NCC1CCCO1)c1ccc(C)cc1` (stereo not shown) [26 (mix), N-(2-methoxybenzyl)-2-nitro-N-{1-(4-methylphenyl)-2-oxo-2-[(tetrahydrofuran-2-ylmethyl)amino]ethyl}benzamide] and `CCC(CC)CN(C(=O)C1CCCCC1)C(C(=O)NCC1CCCO1)c1ccc(C)cc1` (stereo not shown) [50 (mix), N-(2-ethylbutyl)-N-{1-(4-methylphenyl)-2-oxo-2-[(tetrahydrofuran-2-ylmethyl)amino]ethyl}cyclohexanecarboxamide] are within 1.5-fold of each other in IC50: 14400 nM for the first, 14200 nM for the second.

First: N-(2-methoxybenzyl)-N-{(1R)-1-(4-methylphenyl)-2-oxo-2-[(2R)-(pyrrolidin-2-ylmethyl)amino]ethyl}-2-(1H-1,2,3-triazol-1-yl)acetate [Compound 55 (R,R)]
Second: Cc1ccc(C(C(=O)NCC2CCCO2)N(CC2CCCC2)C(=O)Cc2ccccc2C)cc1 (stereo not shown) [44 (mix), N-(cyclopentylmethyl)-2-(2-methylphenyl)-N-{1-(4-methylphenyl)-2-oxo-2-[(tetrahydrofuran-2-ylmethyl)amino]ethyl}acetamide]
The IC50 of the first is 170-fold lower: 75.7 nM for the first, 12600 nM for the second.

`Cc1ccc(C(C(=O)NCC2CCCO2)N(CC2CCCCC2)C(=O)CN(C)C)cc1` (stereo not shown) [34 (mix), N-(cyclohexylmethyl)-2-(dimethylamino)-N-{1-(4-methylphenyl)-2-oxo-2-[(tetrahydrofuran-2-ylmethyl)amino]ethyl}acetamide] and `COc1ccccc1CN(C(=O)c1ccc(O)cc1)C(C(=O)NCC1CCCO1)c1ccc(C)cc1` (stereo not shown) [16 (mix), 4-hydroxy-N-(2-methoxybenzyl)-N-{1-(4-methylphenyl)-2-oxo-2-[(tetrahydrofuran-2-ylmethyl)amino]ethyl}benzamide] are within 1.5-fold of each other in IC50: 1100 nM for the first, 1000 nM for the second.

Going from `Cc1ccc(C(C(=O)NCC2CCCO2)N(CC2CCCCC2)C(=O)Cc2cccc(C)c2)cc1` (stereo not shown) [40 (mix), N-(cyclohexylmethyl)-2-(3-methylphenyl)-N-{1-(4-methylphenyl)-2-oxo-2-[(tetrahydrofuran-2-ylmethyl)amino]ethyl}acetamide] to `COc1ccccc1CN(C(=O)Cn1ccnn1)[C@@H](C(=O)NC[C@H]1CCCO1)c1ccc(C)cc1` [Compound 30 (R,R), N-(2-methoxybenzyl)-N-{(1R)-1-(4-methylphenyl)-2-oxo-2-[(2R)-(tetrahydrofuran-2-ylmethyl)amino]ethyl}-2-(1H-1,2,3-triazol-1-yl)acetamide], the IC50 falls from 5100 nM to 11 nM (460-fold).

Going from `COc1ccccc1CN(C(=O)c1ccco1)[C@@H](C(=O)NC[C@H]1CCCO1)c1ccc(C)cc1` [Compound 4 (R,R), N-(2-methoxybenzyl)-N-[(1R)-1-(4-methylphenyl)-2-oxo-2-{[(2R)tetrahydrofuran-2-ylmethyl]amino}ethyl]furan-2-carboxamide] to `Cc1ccc(C(C(=O)NCC2CCCO2)N(CC2CCCCC2)C(=O)Cc2ccccc2)cc1` (stereo not shown) [37 (mix), N-(cyclohexylmethyl)-2-phenyl-N-{1-(4-methylphenyl)-2-oxo-2-[(tetrahydrofuran-2-ylmethyl)amino]ethyl}acetamide], the IC50 rises from 358 nM to 6200 nM (17-fold).

Going from `COc1ccccc1CN(C(=O)Cn1nnc2ccccc21)[C@@H](C(=O)NC[C@H]1CCCO1)c1ccc(C)cc1` [Compound 1 (R,R), 2-(1H-benzotriazol-1-yl)-N-(2-methoxybenzyl)-N-{[(1R)-1-(4-methylphenyl)]-2-oxo-2-[(2R)-(tetrahydrofuran-2-ylmethyl)amino]ethyl}acetamide] to `COc1ccccc1CN(C(=O)Cc1cccc(C)c1)C(C(=O)NCC1CCCO1)c1ccc(C)cc1` (stereo not shown) [18 (mix)], the IC50 rises from 43 nM to 300 nM (7-fold). The first is the more potent here.

First: CCC(CC)CN(C(=O)Cc1ccc(F)cc1)C(C(=O)NCC1CCCO1)c1ccc(C)cc1 (stereo not shown) [42 (mix), N-(2-ethylbutyl)-2-(4-fluorophenyl)-N-{1-(4-methylphenyl)-2-oxo-2-[(tetrahydrofuran-2-ylmethyl)amino]ethyl}acetamide]
Second: CCCCC(=O)N(Cc1ccccc1OC)C(C(=O)NCC1CCCO1)c1ccc(C)cc1 (stereo not shown) [14 (mix), N-(2-methoxybenzyl)-N-{1-(4-methylphenyl)-2-oxo-2-[(tetrahydrofuran-2-ylmethyl)amino]ethyl}pentanamide]
The IC50 of the first is 32-fold higher: 9600 nM for the first, 300 nM for the second.

Going from `COc1ccccc1CN(C(=O)Cn1nnc2ccccc21)C(C(=O)NCC1CCCO1)c1ccc(C(F)(F)F)cc1` (stereo not shown) [53 (mix), 2-(1H-benzotriazol-1-yl)-N-(2-methoxybenzyl)-N-{1-(4-trifluoromethylphenyl)-2-oxo-2-[(tetrahydrofuran-2-ylmethyl)amino]ethyl}acetamide] to `COc1ccccc1CN(C(=O)Cn1nnc2ccccc21)C(C(=O)NCC1CCCO1)c1ccc(C)cc1` (stereo not shown) [1 (mix), 2-(1H-benzotriazol-1-yl)-N-(2-methoxybenzyl)-N-{1-(4-methylphenyl)-2-oxo-2-[(tetrahydrofuran-2-ylmethyl)amino]ethyl}acetamide], the IC50 rises from 297 nM to 1900 nM (6.4-fold).

In the case of `Cc1ccc(C(C(=O)NCC2CCCO2)N(Cc2cccn2C)C(=O)CN(C)C)cc1` (stereo not shown) [43 (mix), 2-(dimethylamino)-N-[(1-methyl-1H-pyrrol-2-yl)methyl]-N-{1-(4-methylphenyl)-2-oxo-2-[(tetrahydrofuran-2-ylmethyl)amino]ethyl}acetamide], the IC50 is reported as 9500 nM.
